Values of other authors in PMC3035168 (Chemistry & biology, 2010).
Residues, ends and D or L forms follow the SMILES beside them. *: point of attachment. Cbz = O=C(OCc1ccccc1)*; CH2F = FC*

Legend:
[1] = mouse, in vivo
striatal neurons = conditions: ref Schulz et al., 1998
[2] = tested on: HD transgenic mouse models; conditions: ref Chen et al., 2000

## C[C@H](NC(=O)C(=O)Nc1ccccc1C(C)(C)C)C(=O)N[C@@H](CC(=O)O)C(=O)COc1c(F)c(F)cc(F)c1F [IDN-6556]
[1]
  toxicity: nontoxic

## COC(=O)C[C@H](NC(=O)[C@H](C)NC(=O)[C@@H](NC(=O)OCc1ccccc1)C(C)C)C(=O)CF [zVAD-fmk] (Cbz-Val-Ala-Asp(OMe)-CH2F)
Striatal neurons
  protection against malonate-induced excitoxicity: protected striatal neurons

## CN(C)c1ccc(O)c2c1C[C@H]1C[C@H]3[C@H](N(C)C)C(O)=C(C(N)=O)C(=O)[C@@]3(O)C(O)=C1C2=O [minocycline]
[2]; HD transgenic mouse models
  effect on cell death: delays cell death
[2]; through indirect means
  effect on caspase-1 and caspase-3 transcription: inhibits caspase-1 and caspase-3 transcriptional upregulation
